Assay type in all cases: functional
The nature of assay [1]: Noncompetitive antagonism of Angiotensin II receptor in endothelium removed isolated rat aortic ring; (n = 5). Particulars: read-out: pA2 (converted).
A short description of assay [2]: Noncompetitive antagonism of Angiotensin II receptor in endothelium removed isolated rat aortic ring.
Assay [3] can be described thus: Competitive antagonism of Angiotensin II receptor in endothelium removed isolated rat aortic ring.
A short description of assay [4]: Competitive antagonism of Angiotensin II receptor in endothelium removed isolated rat aortic ring; (n = 5). Particulars: read-out: pA2 (converted).

As to `CCCc1nc2c([N+](=O)[O-])cccc2n1Cc1ccc(-c2ccccc2C(=O)O)cc1`, in assay [1], the Kb was 79.4 nM. In assay [2], this compound came in with a pA10 of 2.9.

On to `CCCCc1nc2c([N+](=O)[O-])cccc2n1Cc1ccc(-c2ccccc2C(=O)O)cc1`, for which the Kb in assay [1] was 3.16 nM. In assay [2], this compound showed a pA10 of 1.8.

With `CCCCc1nc2c(N)cccc2n1Cc1ccc(-c2ccccc2C(=O)O)cc1`, the pA10 in assay [3] came to 6.9. The Kb in assay [4] was 15.8 nM.

As to `CCOCc1nc2c([N+](=O)[O-])cccc2n1Cc1ccc(-c2ccccc2C(=O)O)cc1`, in assay [1], the Kb was 50.1 nM. The same compound had a pA10 in assay [2] of 1.7.

Consider `CCc1nc2c([N+](=O)[O-])cccc2n1Cc1ccc(-c2ccccc2C(=O)O)cc1`, for which, in assay [1], the Kb is 100 nM. The same compound registered a pA10 in assay [2] of 3.4.

Take `CCCCc1nc2ccccc2n1Cc1ccc(-c2ccccc2C(=O)O)cc1`: the pA10 in assay [3] is given as 5.81. The Kb in assay [4] was 355 nM.

`CCOc1nc2cccc(C(=O)O)c2n1Cc1ccc(-c2ccccc2-c2nnn[nH]2)cc1` [CANDESARTAN] displayed a pA10 in assay [3] of 7.1. Also, the Kb in assay [4] is 9.55 nM.

Regarding `CCCCc1nc(Cl)c(CO)n1Cc1ccc(-c2ccccc2-c2nnn[nH]2)cc1` [LOSARTAN], the pA10 in assay [3] was 6.5. Also, in assay [4], the Kb is 39.8 nM.

For the origin of these results see ChEMBL document CHEMBL1142804, “Design, synthesis, and evaluation of novelly substituted benzimidazole compounds as angiotensin II receptor antagonists” (Bioorg Med Chem Lett, 2005).
